Consider 64 molecules from ChEMBL document CHEMBL1148225, “Discovery and SAR of trisubstituted thiazolidinones as CCR4 antagonists” (Bioorg Med Chem Lett, 2004).

“And” between values parts separate entries of the source, which are not always exact repeats. Equal values may be shown once.

The assay has as its target T1, C-C chemokine receptor type 4 (Homo sapiens, UniProt P51679).
T1 sequence (P51679 whole entry): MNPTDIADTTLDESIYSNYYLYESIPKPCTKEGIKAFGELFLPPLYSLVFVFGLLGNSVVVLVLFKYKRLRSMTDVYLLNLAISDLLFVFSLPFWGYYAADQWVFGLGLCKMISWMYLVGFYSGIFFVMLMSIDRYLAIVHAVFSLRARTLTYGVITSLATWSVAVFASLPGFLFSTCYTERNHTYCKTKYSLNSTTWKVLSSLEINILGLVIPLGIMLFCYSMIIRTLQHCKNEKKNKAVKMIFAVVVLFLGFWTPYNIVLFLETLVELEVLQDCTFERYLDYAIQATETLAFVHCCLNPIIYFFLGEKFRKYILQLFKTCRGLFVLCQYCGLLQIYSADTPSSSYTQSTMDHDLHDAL
Nature of the assay: Inhibition of [125I]MDC binding to recombinant human C-C chemokine receptor type 4 (CCR4) expressed in murine pre-B cells. The class given is cell-based.
As usually defined, the IC50 is the concentration at which inhibition is half-maximal. Regarding `CN(C)CCCNC(=O)CN1C(=O)[C@@H](CC(=O)NCc2cccc3ccccc23)S[C@@H]1c1ccc(Cl)cc1Cl`, the IC50 stood at 0.36 µM.

Consider `CN1CCC(NC(=O)CN2C(=O)[C@@H](CC(=O)NCc3cccc4ccccc34)S[C@@H]2c2ccc(Cl)cc2Cl)CC1`, for which the IC50 came out at 8 µM.

For `O=C(C[C@H]1S[C@H](c2ccc(Cl)cc2Cl)N(CC(=O)NCCCN2CCOCC2)C1=O)NCc1cccc(F)c1`, the IC50 came to 1.5 µM.

For the molecule `O=C(C[C@H]1S[C@H](c2ccc(Cl)cc2)N(CC(=O)NCCCN2CCOCC2)C1=O)NCc1cccc2ccccc12`, the IC50 worked out at 0.83 µM.

`O=C(C[C@H]1S[C@H](c2ccc(Cl)cc2Cl)N(CC(=O)NCCCN2CCOCC2)C1=O)NCc1ccc(-c2ccccc2)cc1`: the IC50 worked out at 2.5 µM.

Consider `C[C@H](NC(=O)C[C@H]1S[C@H](c2ccc(Cl)cc2Cl)N(CC(=O)NCCCN2CCOCC2)C1=O)c1ccccc1`, for which the IC50 came out at 12 µM.

For `O=C(C[C@H]1S[C@H](c2ccc(Cl)cc2Cl)N(CCN2CCOCC2)C1=O)NCc1cccc2ccccc12`, the IC50 was found to be 9 µM.

For the molecule `O=C(C[C@H]1S[C@H](c2ccncc2)N(CC(=O)NCCCN2CCOCC2)C1=O)NCc1cccc2ccccc12`, the IC50 was 34 µM.

As to `O=C(C[C@H]1S[C@H](c2ccc(Cl)cc2Cl)N(CC(=O)NCCCCCN2CCOCC2)C1=O)NCc1cccc2ccccc12`, the IC50 was 2.4 µM.

With `O=C(C[C@H]1S[C@H](c2ccsc2)N(CC(=O)NCCCN2CCOCC2)C1=O)NCc1cccc2ccccc12`, the IC50 came out at 66 µM.

Take `O=C(C[C@H]1S[C@H](c2cc(Cl)cc(Cl)c2)N(CC(=O)NCCCN2CCOCC2)C1=O)NCc1cccc2ccccc12`: the IC50 was found to be 9 µM.

Take `O=C(C[C@H]1S[C@H](c2ccc(Cl)cc2Cl)N(CCCCN2CCOCC2)C1=O)NCc1cccc2ccccc12`: the IC50 amounted to 18 µM.

Turning to `O=C(C[C@H]1S[C@H](c2ccc(Cl)cc2Cl)N(CC(=O)N2CCNCC2)C1=O)NCc1cccc2ccccc12`, the IC50 is 1.4 µM.

As to `COc1ccc([C@H]2S[C@H](CC(=O)NCc3cccc4ccccc34)C(=O)N2CC(=O)NCCCN2CCOCC2)c(OC)c1`, the IC50 worked out at 33 µM.

As to `O=C(CN1C(=O)[C@@H](CC(=O)NC(c2ccccc2)c2ccccc2)S[C@@H]1c1ccc(Cl)cc1Cl)NCCCN1CCOCC1`, the IC50 is 6 µM.

In the case of `COc1ccc(CNC(=O)C[C@H]2S[C@H](c3ccc(Cl)cc3Cl)N(CC(=O)NCCCN3CCOCC3)C2=O)c(OC)c1`, the IC50 came out at 32 µM.

With `O=C(CN1C(=O)[C@@H](CC(=O)NC2CCCc3ccccc32)S[C@@H]1c1ccc(Cl)cc1Cl)NCCCN1CCOCC1` (some centres undefined), the IC50 was determined as 6.7 µM.

`O=C(CN1C(=O)[C@@H](CC(=O)Nc2nccs2)S[C@@H]1c1ccc(Cl)cc1Cl)NCCCN1CCOCC1`: the IC50 came to 11 µM.

`O=C(C[C@H]1S[C@H](c2ccc(Cl)cc2Cl)N(CC(=O)NCCCN2CCOCC2)C1=O)NCc1cccc2ccccc12`: the IC50 turned out to be 0.69 µM.

Regarding `Cc1c(Cl)cccc1CNC(=O)C[C@H]1S[C@H](c2ccc(Cl)cc2Cl)N(CC(=O)NCCCN2CCOCC2)C1=O`, the IC50 was found to be 0.4 µM.

Take `O=C(C[C@H]1S[C@H](C2CCCCC2)N(CC(=O)NCCCN2CCOCC2)C1=O)NCc1cccc2ccccc12`: the concentration for half-maximal inhibition (IC50) turned out to be 100 µM.

Consider `O=C(C[C@H]1S[C@H](c2ccoc2)N(CC(=O)NCCCN2CCOCC2)C1=O)NCc1cccc2ccccc12`, for which the IC50 turned out to be 100 µM.

Regarding `Cc1cccc(CNC(=O)C[C@H]2S[C@H](c3ccc(Cl)cc3Cl)N(CC(=O)NCCCN3CCOCC3)C2=O)c1C`, the IC50 came to 0.44 µM.

Consider `O=C(C[C@H]1S[C@H](c2ccc(Cl)cc2Cl)N(CC(=O)NCCCN2CCCCC2)C1=O)NCc1cccc2ccccc12`, for which the 50% inhibitory concentration (IC50) is 0.2 µM.

Consider `O=C(C[C@H]1S[C@H](c2ccc(Cl)cc2Cl)N(CC(=O)NCCCN2CCOCC2)C1=O)NCc1cccc(Cl)c1`, for which the IC50 worked out at 0.93 µM.

Consider `O=C(C[C@H]1S[C@H](c2cccc(Cl)c2Cl)N(CC(=O)NCCCN2CCOCC2)C1=O)NCc1cccc2ccccc12`, for which the IC50 worked out at 18 µM.

Turning to `O=C(C[C@H]1S[C@H](c2ccc(Cl)c(Cl)c2)N(CC(=O)NCCCN2CCOCC2)C1=O)NCc1cccc2ccccc12`, the IC50 was more than 25 µM.

As for `O=C(C[C@H]1S[C@H](Cc2ccccc2)N(CC(=O)NCCCN2CCOCC2)C1=O)NCc1cccc2ccccc12`, the half-maximal inhibitory concentration (IC50) is more than 100 µM.

Regarding `O=C(C[C@H]1S[C@H](c2ccc(Cl)cc2Cl)N(CC(=O)NCCCN2CCOCC2)C1=O)NCc1ccc2[nH]ccc2c1`, the IC50 amounted to 1 µM.

Turning to `O=C(C[C@H]1S[C@H](c2ccc(Cl)cc2Cl)N(CC(=O)NCCCN2CCOCC2)C1=O)NCc1cccc(C(F)(F)F)c1`, the IC50 is 1 µM.

For the molecule `NCCNC(=O)CCN1C(=O)[C@@H](CC(=O)NCc2cccc3ccccc23)S[C@@H]1c1ccc(Cl)cc1Cl`, the IC50 worked out at 9 µM.

In the case of `O=C(C[C@H]1S[C@H](c2ccc(Cl)cc2Cl)N(CC(=O)NCCCN2CCCC2)C1=O)NCc1cccc2ccccc12`, the IC50 is 0.31 µM.

With `CC(C)(C)CCNC(=O)C[C@H]1S[C@H](c2ccc(Cl)cc2Cl)N(CC(=O)NCCCN2CCOCC2)C1=O`, the IC50 was 21 µM.

Regarding `O=C(C[C@H]1S[C@H](c2ccc(Cl)cc2Cl)N(CC(=O)NCCCN2CCOCC2)C1=O)NCc1cccc(C(F)(F)F)c1F`, the IC50 turned out to be 2.5 µM.

Turning to `CC(C)CCNC(=O)C[C@H]1S[C@H](c2ccc(Cl)cc2Cl)N(CC(=O)NCCCN2CCOCC2)C1=O`, the IC50 turned out to be 19 µM.

In the case of `C[C@@H](NC(=O)C[C@H]1S[C@H](c2ccc(Cl)cc2Cl)N(CC(=O)NCCCN2CCOCC2)C1=O)c1ccccc1` (stereo in doubt; 89), the IC50 was determined as 0.25 µM.

With `Cc1cccc(CNC(=O)C[C@H]2S[C@H](c3ccc(Cl)cc3Cl)N(CC(=O)NCCCN3CCOCC3)C2=O)c1`, the IC50 came to 2.3 µM.

With `CN(C)CCCN(C)C(=O)CN1C(=O)[C@@H](CC(=O)NCc2cccc3ccccc23)S[C@@H]1c1ccc(Cl)cc1Cl`, the IC50 stood at 0.36 µM.

For the molecule `CN(C)CCCN1C(=O)[C@@H](CC(=O)NCc2cccc3ccccc23)S[C@@H]1c1ccc(Cl)cc1Cl`, the IC50 came out at 5.6 µM.

Turning to `O=C(CC1SC(c2ccc(Cl)cc2)N(CC(=O)NCCCN2CCOCC2)C1=O)NCc1cccc2ccccc12` (centres undefined), the IC50 is 2.4 µM and 0.83 µM.

Regarding `C[C@H](NC(=O)C[C@H]1S[C@H](c2ccc(Cl)cc2Cl)N(CC(=O)NCCCN2CCOCC2)C1=O)c1cccc2ccccc12`, the IC50 stood at 8 µM.

Turning to `CN1CCN(C(=O)CN2C(=O)[C@@H](CC(=O)NCc3cccc4ccccc34)S[C@@H]2c2ccc(Cl)cc2Cl)CC1`, the IC50 is 20 µM.

`O=C(C[C@H]1S[C@H](c2ccc(Cl)cc2Cl)N(CC(=O)NCCCN2CCOCC2)C1=O)NCc1ccco1`: the IC50 amounted to 7 µM.

`O=C(C[C@H]1S[C@H](c2ccccc2Cl)N(CC(=O)NCCCN2CCOCC2)C1=O)NCc1cccc2ccccc12`: the IC50 is 11 µM.

With `O=C(C[C@H]1S[C@H](c2ccc(Cl)cc2Cl)N(CC(=O)NCCCN2CCOCC2)C1=O)NCc1ccccc1-c1ccccc1`, the IC50 is 6 µM.

Take `O=C(C[C@H]1S[C@H](c2cccc(C(F)(F)F)c2)N(CC(=O)NCCCN2CCOCC2)C1=O)NCc1cccc2ccccc12`: the IC50 is 12 µM.

On to `O=C(C[C@H]1S[C@H](c2ccc(Cl)cc2Cl)N(CC(=O)NCCCN2CCOCC2)C1=O)NCc1csc2ccccc12`, for which the IC50 is 0.34 µM.

Consider `O=C(C[C@H]1S[C@H](c2ccco2)N(CC(=O)NCCCN2CCOCC2)C1=O)NCc1cccc2ccccc12`, for which the IC50 was determined as 29 µM.

Turning to `CN1CCN(CCCNC(=O)CN2C(=O)[C@@H](CC(=O)NCc3cccc4ccccc34)S[C@@H]2c2ccc(Cl)cc2Cl)CC1`, the IC50 was 0.57 µM.

For the molecule `Cc1ccccc1CNC(=O)C[C@H]1S[C@H](c2ccc(Cl)cc2Cl)N(CC(=O)NCCCN2CCOCC2)C1=O`, the IC50 was determined as 11 µM.

`O=C(C[C@H]1S[C@H](c2ccc(Cl)cc2Cl)N(CCNS(=O)(=O)CCCN2CCOCC2)C1=O)NCc1cccc2ccccc12`: the IC50 is 24 µM.

As for `Cc1ccc(CNC(=O)C[C@H]2S[C@H](c3ccc(Cl)cc3Cl)N(CC(=O)NCCCN3CCOCC3)C2=O)n1C`, the IC50 turned out to be 2.5 µM.

On to `O=C(C[C@H]1S[C@H](c2ccc(F)cc2Cl)N(CC(=O)NCCCN2CCOCC2)C1=O)NCc1cccc2ccccc12`, for which the IC50 was 1 µM.

Turning to `O=C(C[C@H]1S[C@H](c2ccc(Cl)cc2Cl)N(CC(=O)NCCCN2CCOCC2)C1=O)NCc1ccc(Cl)cc1Cl` (stereo in doubt; 66), the IC50 was determined as 2 µM.

For the molecule `O=C(C[C@H]1S[C@H](c2ccc(Cl)cc2Cl)N(CC(=O)NCCCN2CCOCC2)C1=O)NCc1cccs1`, the IC50 is 11 µM.

For the molecule `Cc1ccc([C@H]2S[C@H](CC(=O)NCc3cccc4ccccc34)C(=O)N2CC(=O)NCCCN2CCOCC2)c(C)c1`, the concentration for half-maximal inhibition (IC50) worked out at 11 µM.

On to `O=C(C[C@H]1S[C@H](c2ccc(F)cc2F)N(CC(=O)NCCCN2CCOCC2)C1=O)NCc1cccc2ccccc12`, for which the IC50 came out at 1 µM.

`Cc1c(Cl)cccc1CNC(=O)C[C@H]1S[C@H](c2ccc(Cl)cc2Cl)N(CC(=O)NCCCN2CCCCC2)C1=O`: the IC50 was determined as 0.14 µM.

Turning to `O=C(C[C@H]1S[C@H](c2ccc(Cl)cc2Cl)N(CC(=O)NCCCN2CCOCC2)C1=O)NCc1ccccc1Cl`, the half-inhibitory concentration (IC50) turned out to be 10 µM.

With `O=C(C[C@H]1S[C@H](c2ccc(Cl)cc2Cl)N(CC(=O)NCCCN2CCOCC2)C1=O)NCc1ccc(Cl)c(C(F)(F)F)c1`, the IC50 stood at 6 µM.

For `O=C(C[C@H]1S[C@H](c2ccc(Cl)cc2Cl)N(CC(=O)NCCCN2CCOCC2)C1=O)NCc1ccc(Cl)cc1Cl` (stereo in doubt; 72), the IC50 was found to be 3 µM.

With `O=C(C[C@H]1S[C@H](c2ccc(Cl)cc2Cl)N(CC(=O)NCCCN2CCOCC2)C1=O)NCc1cc(Cl)ccc1Cl`, the IC50 came to 4 µM.

Regarding `O=C(C[C@H]1S[C@H](c2cc(Cl)ccc2Cl)N(CC(=O)NCCCN2CCOCC2)C1=O)NCc1cccc2ccccc12`, the IC50 was found to be 12 µM.

For `O=C(C[C@H]1S[C@@H](c2ccc(Cl)cc2)N(CC(=O)NCCCN2CCOCC2)C1=O)NCc1cccc2ccccc12`, the IC50 is approximately 6 µM.
